Results: patent US20260250318A1, “COMPOSITIONS AND METHODS FOR CROSSING THE BLOOD BRAIN BARRIER” (VOYAGER THERAPEUTICS, INC., priority 2022, published 2026)

system: brain; experiment: Maturation of TTM-001 capsid, NGS enrichment in brain of CD-1 Outbred mice; assay type: in vivo; details: NGS fold-enrichment of TTM-001 matured AAV capsid variants in the brain of CD-1 Outbred mice; intravenous 1.0×10^12 VG/dose; 14 days in life; RNA; relative to non-matured TTM-001 control
Method in brief: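 Brain enrichment read by NGS after RNA extraction and RT-PCR, expressed as fold ratio over the matching parental capsid (TTM-001 or TTM-002). Libraries, mutated around loop IV positions 449/450–466, were injected intravenously (tail vein, 1.0×10^12 VG/dose) into three female CD-1 mice; brains harvested at 14 days.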

Compared with KTINGSGSPHSKAQLRRT, KTINGSGSPHSKAQLSIT is lower in “Fold enrichment over TTM-001” value: 3.825 fold for the first, 2.784 fold for the second.

First: KTINGSGSPHSKAQLSKT
Second: KTINGSGSPHSKAQLTLT
The “Fold enrichment over TTM-001” value of the first is lower: 2.035 fold for the first, 2.641 fold for the second.

Going from KTINGSGSPHSKAQLTVT to KTINGSGSPHSKAQLVKT, the “Fold enrichment over TTM-001” value falls from 4.026 fold to 2.376 fold.

Going from KTINGSGSPHSKAQLVLT to KTINGSGSPHSKAQLVVT, the “Fold enrichment over TTM-001” value rises from 2.508 fold to 3.654 fold.

Going from KTINGSGSPHSKAQLYRT to KTINGSGSPHSKAQMKCT, the “Fold enrichment over TTM-001” value falls from 4.108 fold to 2.039 fold.

Going from KTINGSGSPHSKAQMVRT to KTINGSGSPHSKAQNAKL, the “Fold enrichment over TTM-001” value rises from 2.426 fold to 2.486 fold.

Compared with KTINGSGSPHSKAQNAKS, KTINGSGSPHSKAQNARH is higher in “Fold enrichment over TTM-001” value: 2.009 fold for the first, 2.127 fold for the second.

First: KTINGSGSPHSKAQNEVH
Second: KTINGSGSPHSKAQNKRS
The “Fold enrichment over TTM-001” value of the first is higher: 2.272 fold for the first, 2.214 fold for the second.

Going from KTINGSGSPHSKAQNLRR to KTINGSGSPHSKAQNRIR, the “Fold enrichment over TTM-001” value falls from 2.231 fold to 2.039 fold.

Compared with KTINGSGSPHSKAQNRKL, KTINGSGSPHSKAQNRMR is higher in “Fold enrichment over TTM-001” value: 2.084 fold for the first, 2.804 fold for the second.

First: KTINGSGSPHSKAQNRRS
Second: KTINGSGSPHSKAQNSRR
The “Fold enrichment over TTM-001” value of the first is lower: 2.613 fold for the first, 3.168 fold for the second.

First: KTINGSGSPHSKAQNTRR
Second: KTINGSGSPHSKAQNVKL
The “Fold enrichment over TTM-001” value of the first is lower: 2.013 fold for the first, 2.024 fold for the second.

Compared with KTINGSGSPHSKAQNWRT, KTINGSGSPHSKAQNYRA is lower in “Fold enrichment over TTM-001” value: 2.125 fold for the first, 2.039 fold for the second.

First: KTINGSGSPHSKAQPSKT
Second: KTINGSGSPHSKAQQSRT
The “Fold enrichment over TTM-001” value of the first is higher: 2.339 fold for the first, 2.337 fold for the second.

Compared with KTINGSGSPHSKAQRGMT, KTINGSGSPHSKAQRHAT is higher in “Fold enrichment over TTM-001” value: 2.231 fold for the first, 2.264 fold for the second.

First: KTINGSGSPHSKAQRHVT
Second: KTINGSGSPHSKAQRKLT
The “Fold enrichment over TTM-001” value of the first is lower: 3.404 fold for the first, 4.339 fold for the second.

Compared with KTINGSGSPHSKAQRLRT, KTINGSGSPHSKAQRLWT is lower in “Fold enrichment over TTM-001” value: 4.322 fold for the first, 2.611 fold for the second.

Going from KTINGSGSPHSKAQRRLT to KTINGSGSPHSKAQRRQT, the “Fold enrichment over TTM-001” value falls from 4.227 fold to 2.479 fold.

First: KTINGSGSPHSKAQRRST
Second: KTINGSGSPHSKAQRSRT
The “Fold enrichment over TTM-001” value of the first is lower: 2.993 fold for the first, 3.585 fold for the second.

Compared with KTINGSGSPHSKAQRWLT, KTINGSGSPHSKAQSHRT is lower in “Fold enrichment over TTM-001” value: 2.788 fold for the first, 2.084 fold for the second.

Going from KTINGSGSPHSKAQSLKT to KTINGSGSPHSKAQSRRT, the “Fold enrichment over TTM-001” value rises from 2.110 fold to 3.372 fold.

Going from KTINGSGSPHSKAQSSKT to KTINGSGSPHSKAQSSRT, the “Fold enrichment over TTM-001” value rises from 2.078 fold to 2.575 fold.

Going from KTINGSGSPHSKAQSVKT to KTINGSGSPHSKAQSWRT, the “Fold enrichment over TTM-001” value rises from 2.464 fold to 2.596 fold.

Compared with KTINGSGSPHSKAQSYRT, KTINGSGSPHSKAQTART is higher in “Fold enrichment over TTM-001” value: 2.088 fold for the first, 2.363 fold for the second.

Compared with KTINGSGSPHSKAQTFRT, KTINGSGSPHSKAQTGRT is lower in “Fold enrichment over TTM-001” value: 2.847 fold for the first, 2.371 fold for the second.

First: KTINGSGSPHSKAQTMRT
Second: KTINGSGSPHSKAQTNRT
The “Fold enrichment over TTM-001” value of the first is lower: 2.453 fold for the first, 2.510 fold for the second.

Going from KTINGSGSPHSKAQTSRT to KTINGSGSPHSKAQTTRT, the “Fold enrichment over TTM-001” value falls from 3.421 fold to 2.385 fold.

First: KTINGSGSPHSKAQVCLT
Second: KTINGSGSPHSKAQVKLT
The “Fold enrichment over TTM-001” value of the first is lower: 2.182 fold for the first, 2.564 fold for the second.

Going from KTINGSGSPHSKAQVLIT to KTINGSGSPHSKAQVSIT, the “Fold enrichment over TTM-001” value falls from 2.317 fold to 2.028 fold.

First: KTINGSGSPHSKAQVSKT
Second: KTINGSGSPHSKAQVTLT
The “Fold enrichment over TTM-001” value of the first is higher: 3.406 fold for the first, 2.179 fold for the second.

Compared with KTINGSGSPHSKAQVVLT, KTINGSGSPHSKAQVWFT is lower in “Fold enrichment over TTM-001” value: 2.438 fold for the first, 2.181 fold for the second.

Going from KTINGSGSPHSKAQWLRT to KTINGSGSPHSKAQWSVT, the “Fold enrichment over TTM-001” value falls from 2.795 fold to 2.501 fold.

Compared with KTINGSGSPHSKAQWVLT, KTINGSGSPHSKAQYCLT is higher in “Fold enrichment over TTM-001” value: 2.052 fold for the first, 2.628 fold for the second.

First: KTINGSGSPHSKAQYRLT
Second: KTINGSGSPHSKAQYYVT
The “Fold enrichment over TTM-001” value of the first is lower: 2.088 fold for the first, 6.283 fold for the second.

Going from KTINGSGSPHSKARANQT to KTINGSGSPHSKARFSQT, the “Fold enrichment over TTM-001” value falls from 2.300 fold to 2.253 fold.

First: KTINGSGSPHSKARFTQT
Second: KTINGSGSPHSKARGIQT
The “Fold enrichment over TTM-001” value of the first is higher: 2.233 fold for the first, 2.140 fold for the second.

Compared with KTINGSGSPHSKARGQQT, KTINGSGSPHSKARGTQT is higher in “Fold enrichment over TTM-001” value: 2.039 fold for the first, 2.505 fold for the second.

First: KTINGSGSPHSKARGVQT
Second: KTINGSGSPHSKARGYQT
The “Fold enrichment over TTM-001” value of the first is lower: 2.181 fold for the first, 2.492 fold for the second.

Going from KTINGSGSPHSKARIMQT to KTINGSGSPHSKARITQT, the “Fold enrichment over TTM-001” value rises from 2.283 fold to 2.525 fold.

Compared with KTINGSGSPHSKARIVQT, KTINGSGSPHSKARKLQT is lower in “Fold enrichment over TTM-001” value: 3.287 fold for the first, 2.458 fold for the second.

Compared with KTINGSGSPHSKARLAQT, KTINGSGSPHSKARLQQT is higher in “Fold enrichment over TTM-001” value: 2.007 fold for the first, 2.089 fold for the second.

Going from KTINGSGSPHSKARLRQT to KTINGSGSPHSKARLTQT, the “Fold enrichment over TTM-001” value falls from 4.155 fold to 2.223 fold.

First: KTINGSGSPHSKARLWQT
Second: KTINGSGSPHSKARLYQT
The “Fold enrichment over TTM-001” value of the first is higher: 2.914 fold for the first, 2.201 fold for the second.

First: KTINGSGSPHSKARMAQT
Second: KTINGSGSPHSKARMGQT
The “Fold enrichment over TTM-001” value of the first is lower: 2.488 fold for the first, 2.564 fold for the second.

First: KTINGSGSPHSKARMQQT
Second: KTINGSGSPHSKARMTQT
The “Fold enrichment over TTM-001” value of the first is higher: 2.184 fold for the first, 2.091 fold for the second.

Compared with KTINGSGSPHSKARNGQT, KTINGSGSPHSKARNKQT is lower in “Fold enrichment over TTM-001” value: 2.482 fold for the first, 2.108 fold for the second.

Going from KTINGSGSPHSKARPFQT to KTINGSGSPHSKARPYQT, the “Fold enrichment over TTM-001” value rises from 2.443 fold to 3.050 fold.

First: KTINGSGSPHSKARQQQT
Second: KTINGSGSPHSKARRLQT
The “Fold enrichment over TTM-001” value of the first is lower: 2.244 fold for the first, 4.210 fold for the second.

First: KTINGSGSPHSKARRQQT
Second: KTINGSGSPHSKARRSQT
The “Fold enrichment over TTM-001” value of the first is higher: 4.218 fold for the first, 3.493 fold for the second.

Compared with KTINGSGSPHSKARSKQT, KTINGSGSPHSKARSRQT is higher in “Fold enrichment over TTM-001” value: 2.758 fold for the first, 2.972 fold for the second.

First: KTINGSGSPHSKARSYQT
Second: KTINGSGSPHSKARTRQT
The “Fold enrichment over TTM-001” value of the first is lower: 2.382 fold for the first, 2.737 fold for the second.

Going from KTINGSGSPHSKARYSQT to KTINGSGSPHSKARYVQT, the “Fold enrichment over TTM-001” value rises from 2.369 fold to 2.749 fold.

Compared with KTINGSGSPHSKASCRQT, KTINGSGSPHSKASKNQT is lower in “Fold enrichment over TTM-001” value: 2.840 fold for the first, 2.171 fold for the second.

First: KTINGSGSPHSKASKQQT
Second: KTINGSGSPHSKASKRQT
The “Fold enrichment over TTM-001” value of the first is lower: 2.069 fold for the first, 4.117 fold for the second.

Going from KTINGSGSPHSKASRGQT to KTINGSGSPHSKASRHQT, the “Fold enrichment over TTM-001” value rises from 2.182 fold to 2.324 fold.

First: KTINGSGSPHSKASRQQT
Second: KTINGSGSPHSKASRRQT
The “Fold enrichment over TTM-001” value of the first is lower: 2.197 fold for the first, 3.577 fold for the second.

Going from KTINGSGSPHSKATRHQT to KTINGSGSPHSKATRNQT, the “Fold enrichment over TTM-001” value falls from 2.777 fold to 2.756 fold.

Going from KTINGSGSPHSKATRQQT to KTINGSGSPHSKATRRQT, the “Fold enrichment over TTM-001” value rises from 2.505 fold to 3.277 fold.

Compared with KTINGSGSPHSKAVRAQT, KTINGSGSPHSKAVRNQT is lower in “Fold enrichment over TTM-001” value: 2.538 fold for the first, 2.516 fold for the second.

Going from KTINGSGSPHSKAVRQQT to KTINGSGSPHSKAVWRQT, the “Fold enrichment over TTM-001” value falls from 2.052 fold to 2.026 fold.

First: KTINGSGSPHSKAWILQT
Second: KTINGSGSPHSKAWLIQT
The “Fold enrichment over TTM-001” value of the first is lower: 2.004 fold for the first, 2.499 fold for the second.

Going from KTINGSGSPHSKAWLLQT to KTINGSGSPHSKAWLMQT, the “Fold enrichment over TTM-001” value falls from 2.240 fold to 2.015 fold.

First: KTINGSGSPHSKAWYPQT
Second: KTINGSGSPHSKAYLRQT
The “Fold enrichment over TTM-001” value of the first is lower: 2.406 fold for the first, 3.356 fold for the second.

Compared with KTINGSGSPHSKCLLQQT, KTINGSGSPHSKCLNQQT is lower in “Fold enrichment over TTM-001” value: 3.374 fold for the first, 2.594 fold for the second.

First: KTINGSGSPHSKCLSQQT
Second: KTINGSGSPHSKCLTQQT
The “Fold enrichment over TTM-001” value of the first is lower: 2.052 fold for the first, 2.644 fold for the second.

Compared with KTINGSGSPHSKCSNQQT, KTINGSGSPHSKCTLQQT is higher in “Fold enrichment over TTM-001” value: 2.020 fold for the first, 2.808 fold for the second.

Compared with KTINGSGSPHSKEETQQT, KTINGSGSPHSKFKLQQT is higher in “Fold enrichment over TTM-001” value: 2.223 fold for the first, 2.244 fold for the second.

First: KTINGSGSPHSKFLFQQT
Second: KTINGSGSPHSKFSCQQT
The “Fold enrichment over TTM-001” value of the first is higher: 3.173 fold for the first, 2.348 fold for the second.

First: KTINGSGSPHSKGCLQQT
Second: KTINGSGSPHSKGGRQQT
The “Fold enrichment over TTM-001” value of the first is higher: 2.320 fold for the first, 2.164 fold for the second.

Compared with KTINGSGSPHSKGIRQQT, KTINGSGSPHSKGRAQQT is higher in “Fold enrichment over TTM-001” value: 2.497 fold for the first, 2.607 fold for the second.

Compared with KTINGSGSPHSKGRIQQT, KTINGSGSPHSKGRSQQT is higher in “Fold enrichment over TTM-001” value: 2.061 fold for the first, 2.080 fold for the second.
